{"source": "paper PMC11977230", "about": "“Coevolving residues distant from the ligand binding site are involved in GAF domain function” (Communications Chemistry, 2025)", "key": {"[1]": {"target": "T1, WT PDE5 GAFa domain biosensor (GFP^2-GAFa(I159-N316)-RLuc) (Homo sapiens, UniProt O76074)", "T1 construct": "plasmids expressing the GAFa domain-based (GFP^2-GAFa(I159-N316)-RLuc); made in house; host or cells: HEK293T cells, transfected; cleared lysate used, not purified", "assay": "BRET-based GAFa domain conformational biosensor, cGMP dose-response (WT)", "format": "biochemical", "from_the_text": "(§1) Having observed alterations in the structural dynamics in the GAFa domain of PDE5 upon L267A and F295A mutations using MD simulations, we then proceeded to determine the impact of these mutations experimentally. […] (Fig. 4A). Broadly, these changes include a close juxtaposition of the sheet β3 and helix α4 leading to a “closing” of the cGMP binding site, an “inward” movement of sheet β1 and β2 towards the cGMP binding site and an “outward” movement of the loop β2/β3 (Fig. 4A, left panel). Additionally, cGMP binding is associated with a close juxtapositioning of helices α2 and α5 at the N- and C-termini of the GAFa domain, likely associated with the transduction of the allosteric signal from the GAFa domain to the catalytic domain in PDE5 (Fig. 4A, right panel). We decided to take advantage of the latter to monitor cGMP-binding induced conformational change in the GAFa domain through an increase in the BRET efficiency of the GAFa domain biosensor that we have described previously[24] (Fig. 4B). BRET is a biophysical technique that involves resonance energy transfer between a bioluminescent donor and a fluorescent acceptor, the extent of which is dependent on the spectral overlap, distance, and relative orientation between the two reporters. […]"}, "[2]": {"target": "T2, L267A mutant PDE5 GAFa domain biosensor (Homo sapiens, UniProt O76074, L267A)", "T2 construct": "made in house; host or cells: HEK293T cells, transfected; cleared lysate used, not purified", "assay": "BRET-based GAFa domain conformational biosensor, cGMP dose-response (L267A)", "format": "biochemical", "conditions": "1 µM cGMP", "from_the_text": "as §1"}, "[3]": {"target": "T3, F295A mutant PDE5 GAFa domain biosensor (Homo sapiens, UniProt O76074, F295A)", "T3 construct": "made in house; host or cells: HEK293T cells, transfected; cleared lysate used, not purified", "assay": "BRET-based GAFa domain conformational biosensor, cGMP dose-response (F295A)", "format": "biochemical", "conditions": "1 µM cGMP", "from_the_text": "as §1"}, "[4]": {"target": "T4, WT full-length PDE5A2 biosensor (GFP^2-PDE5A2-RLuc) (Homo sapiens, UniProt O76074)", "T4 construct": "the GAFa domain (I159-N316) or the full-length PDE5A2, were flanked by the green fluorescent protein 2 (GFP^2); made in house; host or cells: HEK293T cells, transfected; cleared lysate used, not purified", "assay": "BRET-based full-length PDE5A2 conformational biosensor, cGMP dose-response (WT)", "format": "biochemical", "from_the_text": "(§2) Having elucidated the impact of the L267A and F295A mutations in the isolated GAFa domain, we aimed to investigate their effect on the cGMP-binding induced conformational change in the full-length PDE5 protein. For this, we incorporated the mutations in our previously described BRET-based, full-length PDE5A2 biosensor (Fig. 5A) that reports a conformational change upon cGMP binding to the GAFa, but not the catalytic, domain in the protein[25].\n(§3) The design of the BRET^2-based GAFa and full-length PDE5 (A2 isoform) biosensors was described previously[24],[25]. […]\n(§4) All assays were performed at 37 °C in 96-well, white, flat-bottom plates. […] Bioluminescence spectra of the WT or the mutant biosensors were acquired over wavelengths ranging between 385 and 665 nm utilizing a grating-based system with 15 nm integration step size, with each individual measurement acquired for 1 s using a Tecan SPARK® multimode microplate reader (Tecan, Switzerland). BRET was determined as a ratio of GFP^2 and RLuc emission, either in the absence or in the presence of the indicated concentrations of cGMP, following a 30-min incubation at 37 °C. Bioluminescence and BRET were measured following the addition of the RLuc substrates, either coelenterazine 400a or Prolume purple (NanoLight Technology, Prolume Ltd., USA). […]"}, "[5]": {"target": "L267A mutant full-length PDE5A2 biosensor (Homo sapiens, UniProt O76074, L267A)", "assay": "BRET-based full-length PDE5A2 conformational biosensor, cGMP dose-response (L267A)", "format": "biochemical", "from_the_text": "as §2, §3, §4"}, "[6]": {"target": "F295A mutant full-length PDE5A2 biosensor (Homo sapiens, UniProt O76074, F295A)", "assay": "BRET-based full-length PDE5A2 conformational biosensor, cGMP dose-response (F295A)", "format": "biochemical", "from_the_text": "as §2, §3, §4"}, "[7]": {"tested_on": "isolated PDE5 GAFa domain", "conditions": "cited from earlier work"}, "GAFb domain of PDE2A": {"tested_on": "GAFb domain of PDE2A", "set-up": "method as in PMID 15210692", "conditions": "cGMP-binding GAFb domain of PDE2A; cited from earlier work"}, "[8]": {"conditions": "30 min incubation, mean ± S.D., three experiments, read-out: EC50 of cGMP-induced conformational change (decrease in BRET)"}}}
{"smiles": "Nc1nc2c(ncn2[C@@H]2O[C@@H]3COP(=O)(O)O[C@H]3[C@H]2O)c(=O)[nH]1", "note": "[cGMP]", "values": [{"measurement": "change in BRET in the presence of cGMP", "setting": "[1]; 1 µM cGMP", "result": "increase in BRET"}, {"measurement": "EC50", "setting": "[1]; read-out: EC50 of cGMP-induced conformational change (increase in BRET), HEK293T cell lysate, 30 min, 37 °C, mean ± S.D., four experiments", "result": "19 ± 13", "unit": "nM"}, {"measurement": "change in BRET in the presence of cGMP", "setting": "[2]", "result": "neither the L267A nor the F295A mutant biosensors showed a discernible change in BRET"}, {"measurement": "change in BRET in the presence of cGMP", "setting": "[3]", "result": "neither the L267A nor the F295A mutant biosensors showed a discernible change in BRET"}, {"measurement": "EC50", "setting": "[4]; [8]", "result": "73 ± 20", "unit": "nM"}, {"measurement": "maximum BRET change", "setting": "[4]; cGMP dose-response", "result": "-26.60 ± 3.42", "unit": "%"}, {"measurement": "EC50", "setting": "[5]; [8]", "result": "181 ± 30", "unit": "nM"}, {"measurement": "maximum BRET change", "setting": "[5]; cGMP dose-response", "result": "−17.43 ± 1.31", "unit": "%"}, {"measurement": "EC50", "setting": "[6]; [8]", "result": "3400 ± 2100", "unit": "nM"}, {"measurement": "maximum BRET change", "setting": "[6]; cGMP dose-response", "result": "−12.60 ± 2.37", "unit": "%"}, {"measurement": "affinity for cGMP", "setting": "[7]; PDE5 GAFa domain", "result": "nanomolar affinity"}, {"measurement": "higher affinity for cGMP compared to cAMP", "setting": "[7]; isolated PDE5 GAFa domain", "result": "thousand-fold"}, {"measurement": "fold higher affinity for cGMP", "setting": "GAFb domain of PDE2A", "result": "about 20 fold"}]}
